Assay results taken from ChEMBL document CHEMBL5104158, “Synthesis and human monoamine oxidase inhibitory activity of novel C2-, C3- and C4-substituted phthalonitriles” (Bioorg Med Chem Lett, 2022).

Assays:
[1] = target: T1, Amine oxidase [flavin-containing] B (Homo sapiens, UniProt P27338); assay: Inhibition of human MAO-B assessed as inhibition of H2O2 production using p-tyramine as substrate
T1 sequence (P27338 whole entry): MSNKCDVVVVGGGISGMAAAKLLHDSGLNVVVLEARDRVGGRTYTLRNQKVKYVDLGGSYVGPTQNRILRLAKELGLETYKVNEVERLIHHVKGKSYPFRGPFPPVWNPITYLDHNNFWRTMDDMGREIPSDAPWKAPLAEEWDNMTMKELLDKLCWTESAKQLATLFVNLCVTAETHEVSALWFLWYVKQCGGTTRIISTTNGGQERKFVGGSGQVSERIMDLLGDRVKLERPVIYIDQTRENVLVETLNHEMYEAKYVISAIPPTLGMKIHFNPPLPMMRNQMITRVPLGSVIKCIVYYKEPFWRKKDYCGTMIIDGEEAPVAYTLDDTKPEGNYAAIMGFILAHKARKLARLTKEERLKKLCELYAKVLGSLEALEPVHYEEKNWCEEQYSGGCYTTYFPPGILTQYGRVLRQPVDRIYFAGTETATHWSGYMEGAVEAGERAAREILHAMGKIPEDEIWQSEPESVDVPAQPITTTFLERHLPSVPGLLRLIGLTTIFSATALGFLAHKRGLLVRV

[2] = target: T2, Amine oxidase [flavin-containing] A (Homo sapiens, UniProt P21397); assay: Inhibition of human MAO-A assessed as inhibition of H2O2 production using p-tyramine as substrate
T2 sequence (P21397 whole entry): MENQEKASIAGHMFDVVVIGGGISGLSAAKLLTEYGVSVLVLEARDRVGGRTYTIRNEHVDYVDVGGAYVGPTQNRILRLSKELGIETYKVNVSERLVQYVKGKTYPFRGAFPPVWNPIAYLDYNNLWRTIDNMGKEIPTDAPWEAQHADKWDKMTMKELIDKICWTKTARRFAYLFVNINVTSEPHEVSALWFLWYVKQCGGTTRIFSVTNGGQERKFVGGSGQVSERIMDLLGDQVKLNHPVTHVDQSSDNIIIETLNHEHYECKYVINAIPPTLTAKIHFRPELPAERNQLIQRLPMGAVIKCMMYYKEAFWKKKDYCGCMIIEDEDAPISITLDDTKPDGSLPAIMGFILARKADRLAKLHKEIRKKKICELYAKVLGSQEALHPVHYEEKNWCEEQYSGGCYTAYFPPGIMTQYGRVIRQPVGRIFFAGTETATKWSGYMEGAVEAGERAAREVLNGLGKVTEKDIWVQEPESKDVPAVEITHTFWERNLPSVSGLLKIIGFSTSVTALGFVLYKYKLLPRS

[3] = species on record: Homo sapiens; assay: Selectivity index, ratio of IC50 for inhibition of human MAO-A to IC50 for inhibition of human MAO-B
[4] = target: T1, Amine oxidase [flavin-containing] B; assay: Inhibition of human MAO-B assessed as enzyme residual activity using p-tyramine as substrate
[5] = target: T1, Amine oxidase [flavin-containing] B; assay: Reversible inhibition of human MAO-B assessed as enzyme residual activity using p-tyramine as substrate measured after dialysis by dialysis method
[6] = target: T1, Amine oxidase [flavin-containing] B; assay: Mixed competitive inhibition of human MAO-B using p-tyramine as substrate by Lineweaver-Burk plot analysis
[7] = target: T2, Amine oxidase [flavin-containing] A; assay: Inhibition of human MAO-A assessed as inhibition of H2O2 production using p-tyramine as substrate at 100 uM

`N#Cc1ccc(/N=N/c2ccc(O)c(-c3ccccc3)c2)cc1C#N` showed an IC50 [1] of 1120 nM, an IC50 [2] of 780 nM and a Ratio IC50 [3] of 0.69.

Work on `COc1cc(S)c(/N=N/c2ccc(C#N)c(C#N)c2)cc1OC` yielded an IC50 [1] of 740 nM, an Activity [4] of 34.8% and an Activity [5] of 83.3%. The Ki [6] was 77.5 nM, the IC50 [2] was 55600 nM and the Ratio IC50 [3] was 75.2.

With `CC(=O)Oc1ccc(-c2ccccc2)cc1/N=N/c1ccc(C#N)c(C#N)c1` the IC50 [1] was 3820 nM, the inhibition at 100 µM [7] was 27% and the Ratio IC50 [3] was > 26.2.

Compound `N#Cc1ccc(/N=N/c2cc(-c3ccccc3)ccc2O)cc1C#N` has an IC50 [1] of 700 nM, an IC50 [2] of 29400 nM and a Ratio IC50 [3] of 42.

For `COc1cc(S)c(/N=N/c2cccc(C#N)c2C#N)cc1OC`, the IC50 [1] was 80300 nM, the IC50 [2] was 17800 nM and the Ratio IC50 [3] was 0.22.

`COc1ccc(/N=N/c2ccc(C#N)c(C#N)c2)cc1-c1ccccc1` gave an IC50 [1] of 1440 nM, an IC50 [2] of 890 nM and a Ratio IC50 [3] of 0.62.
